Drawing on patent US20250197406A1, “INDAZOLES AS HEMATOPOIETIC PROGENITOR KINASE 1 (HPK1) INHIBITORS AND METHODS FOR USING SAME” (1ST Biotherapeutics, Inc., priority 2022, published 2025), this text covers IC50 for 28 molecules.

What is called pIC50 is the IC50 on a negative log10 scale, so that one unit is a factor of ten.

pIC50: −log10 of the molar value. Counter-ions that a name gives are not always drawn.

Chain of recombinant human HPK1 (Q92918 whole entry): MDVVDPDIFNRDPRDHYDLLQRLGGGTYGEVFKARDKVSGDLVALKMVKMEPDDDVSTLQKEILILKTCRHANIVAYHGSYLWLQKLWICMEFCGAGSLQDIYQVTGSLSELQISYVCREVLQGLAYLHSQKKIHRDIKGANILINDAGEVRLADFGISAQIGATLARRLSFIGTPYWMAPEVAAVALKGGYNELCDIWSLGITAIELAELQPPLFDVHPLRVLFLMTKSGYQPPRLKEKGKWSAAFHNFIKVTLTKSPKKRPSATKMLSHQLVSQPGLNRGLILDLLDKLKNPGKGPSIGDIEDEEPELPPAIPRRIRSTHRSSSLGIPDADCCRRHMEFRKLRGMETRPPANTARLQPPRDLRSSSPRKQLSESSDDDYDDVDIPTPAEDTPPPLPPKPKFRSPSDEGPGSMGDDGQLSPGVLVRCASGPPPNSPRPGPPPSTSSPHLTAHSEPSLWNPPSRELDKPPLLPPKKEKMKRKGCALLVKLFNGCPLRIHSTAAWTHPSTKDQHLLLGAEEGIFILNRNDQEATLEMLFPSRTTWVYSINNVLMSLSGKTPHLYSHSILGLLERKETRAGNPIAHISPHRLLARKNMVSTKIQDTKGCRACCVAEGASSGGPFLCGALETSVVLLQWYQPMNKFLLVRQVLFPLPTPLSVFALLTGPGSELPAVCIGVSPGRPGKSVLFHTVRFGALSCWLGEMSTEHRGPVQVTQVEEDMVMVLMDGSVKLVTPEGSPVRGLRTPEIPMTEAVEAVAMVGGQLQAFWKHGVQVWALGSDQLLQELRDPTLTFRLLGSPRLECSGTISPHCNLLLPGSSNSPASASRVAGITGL

The target of the assay is recombinant human HPK1 (Homo sapiens (Human), UniProt Q92918). Kind of assay: HPK1 kinase assay (Promega ADP-Glo kinase assay). The assay is classed as biochemical. Particulars: In vitro activity against HPK1, 5 ng HPK1, MBP substrate, ATP 25 μM, 30° C. 40 minutes. In short, it runs like this:
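ADP-Glo luminescence assay with 5 ng recombinant human HPK1, MBP substrate and ATP (added as 25 µM solution) in Tris pH 7.5, 20 mM MgCl2, BSA, DTT, 0.5% DMSO. Reaction ran 40 min at 30 °C. IC50 was fitted from percent inhibition over an inhibitor concentration range.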
(ADP-Glo turns the ADP formed in a reaction into a luminescent signal.)
`CC(C)Nc1c(F)c(Cl)c(-c2cn3cc(NC(=O)[C@@H]4C[C@@H]4C#N)nc3cn2)c2cn[nH]c12` [Example 51, (1R,2S)-N-(6-(5-chloro-6-fluoro-7-(isopropylamino)-1H-indazol-4-yl)imidazo[1,2-a]pyrazin-2-yl)-2-cyanocyclopropane-1-carboxamide]: the pIC50 is above 7.00.

For the molecule `Cc1c(F)c(C(C)CN)c2[nH]ncc2c1-c1cn2cc(NC(=O)[C@@H]3C[C@@H]3F)nc2cn1` (stereo partly drawn) [Example 24, (1S,2S)-N-(6-(7-(1-aminopropan-2-yl)-6-fluoro-5-methyl-1H-indazol-4-yl)imidazo[1,2-a]pyrazin-2-yl)-2-fluorocyclopropane-1-carboxamide], the pIC50 was above 7.00.

With `CC(=O)Nc1cn2cc(-c3c(Cl)c(F)c(C(C)N4CCC(O)C4)c4[nH]ncc34)ncc2n1` (stereo not shown) [Example 163, N-(6-(5-chloro-6-fluoro-7-(1-(3-hydroxypyrrolidin-1-yl)ethyl)-1H-indazol-4-yl)imidazo[1,2-a]pyrazin-2-yl)acetamide], the negative logarithm of the IC50 (pIC50) is 6.00 to 6.30.

As to `CC(C)Nc1c(F)c(Cl)c(-c2cn3cc(NC(=O)C4CCCO4)nc3cn2)c2cn[nH]c12` (stereo not shown) [Example 111, N-(6-(5-chloro-6-fluoro-7-(isopropylamino)-1H-indazol-4-yl)imidazo[1,2-a]pyrazin-2-yl)tetrahydrofuran-2-carboxamide], the pIC50 was 6.30 to 7.00.

Take `CNC(C)c1c(F)c(C)c(-c2cn3cc(NC(=O)[C@@H]4C[C@@H]4F)nc3cn2)c2cn[nH]c12` (stereo partly drawn) [Example 10, (1S,2S)-2-fluoro-N-(6-(6-fluoro-5-methyl-7-(1-(methylamino)ethyl)-1H-indazol-4-yl)imidazo[1,2-a]pyrazin-2-yl)cyclopropane-1-carboxamide]: the pIC50 was 6.30 to 7.00.

On to `CC(=O)Nc1cn2cc(-c3c(Cl)c(F)c([C@H](C)N[S@@+]([O-])C(C)(C)C)c4[nH]ncc34)ncc2n1` [Example 134, N-(6-(7-((S)-1-(((S)-tert-butylsulfinyl)amino)ethyl)-5-chloro-6-fluoro-1H-indazol-4-yl)imidazo[1,2-a]pyrazin-2-yl)acetamide], for which the pIC50 was 6.30 to 7.00.

As to `Cc1c(F)c(NC(C)C)c2[nH]ncc2c1-c1cn2cc(NC(=O)Cc3cccnc3)nc2cn1` [Example 93, N-(6-(6-fluoro-7-(isopropylamino)-5-methyl-1H-indazol-4-yl)imidazo[1,2-a]pyrazin-2-yl)-2-(pyridin-3-yl)acetamide], the negative logarithm of the IC50 (pIC50) is above 7.00.

Turning to `COC(=O)NC1(C(=O)Nc2cn3cc(-c4c(Cl)c(F)c(NC(C)C)c5[nH]ncc45)ncc3n2)CC1` [Example 47, methyl (1-((6-(5-chloro-6-fluoro-7-(isopropylamino)-1H-indazol-4-yl)imidazo[1,2-a]pyrazin-2-yl)carbamoyl)cyclopropyl)carbamate], the pIC50 was 6.00 to 6.30.

Turning to `CC(=O)Nc1cn2cc(-c3c(Cl)c(F)c(OC4CN(C(=O)CO)C4)c4[nH]ncc34)ncc2n1` [Example 148, N-(6-(5-chloro-6-fluoro-7-((1-(2-hydroxyacetyl)azetidin-3-yl)oxy)-1H-indazol-4-yl)imidazo[1,2-a]pyrazin-2-yl)acetamide], the pIC50 is 6.00 to 6.30.

Turning to `CC(C)Nc1c(F)c(Cl)c(-c2cn3cc(NC(=O)C4CCN4)nc3cn2)c2cn[nH]c12` (stereo not shown) [Example 108, N-(6-(5-chloro-6-fluoro-7-(isopropylamino)-1H-indazol-4-yl)imidazo[1,2-a]pyrazin-2-yl)azetidine-2-carboxamide], the pIC50 is 6.30 to 7.00.

As to `CC(C)Nc1c(F)c(C(F)(F)F)c(-c2cn3cc(NC(=O)[C@@H]4C[C@@H]4CO)nc3cn2)c2cn[nH]c12` [Example 104, (1R,2S)-N-(6-(6-fluoro-7-(isopropylamino)-5-(trifluoromethyl)-1H-indazol-4-yl)imidazo[1,2-a]pyrazin-2-yl)-2-(hydroxymethyl)cyclopropane-1-carboxamide], the pIC50 is above 7.00.

As to `C[C@H](NC(=O)C(F)(F)F)c1c(F)c(Cl)c(-c2cn3cc(NC(=O)[C@@H]4C[C@@H]4F)nc3cn2)c2cn[nH]c12` [Example 146, (1S,2S)-N-(6-(5-chloro-6-fluoro-7-((S)-1-(2,2,2-trifluoroacetamido)ethyl)-1H-indazol-4-yl)imidazo[1,2-a]pyrazin-2-yl)-2-fluorocyclopropane-1-carboxamide], the negative-log IC50 (pIC50) is above 7.00.

With `CC(C)Nc1c(F)c(Cl)c(-c2cn3cc(NC(=O)[C@@H](C)N(C)C)nc3cn2)c2cn[nH]c12` [Example 106, (R)-N-(6-(5-chloro-6-fluoro-7-(isopropylamino)-1H-indazol-4-yl)imidazo[1,2-a]pyrazin-2-yl)-2-(dimethylamino)propanamide], the pIC50 was 6.00 to 6.30.

As for `O=C(Nc1cn2cc(-c3c(Cl)c(F)c(OC4CNC4)c4[nH]ncc34)ncc2n1)[C@@H]1C[C@@H]1F` [Example 143, (1S,2S)-N-(6-(7-(azetidin-3-yloxy)-5-chloro-6-fluoro-1H-indazol-4-yl)imidazo[1,2-a]pyrazin-2-yl)-2-fluorocyclopropane-1-carboxamide formate], the pIC50 was 6.00 to 6.30.

Regarding `CSCC(=O)Nc1cn2cc(-c3c(Cl)c(F)c(NC(C)C)c4[nH]ncc34)ncc2n1` [Example 100, N-(6-(5-chloro-6-fluoro-7-(isopropylamino)-1H-indazol-4-yl)imidazo[1,2-a]pyrazin-2-yl)-2-(methylthio)acetamide], the pIC50 was above 7.00.

For the molecule `Cc1c(F)c(C(N)C2CC2)c2[nH]ncc2c1-c1cn2cc(NC(=O)[C@@H]3C[C@@H]3F)nc2cn1` (stereo partly drawn) [Example 23, (1S,2S)-N-(6-(7-(amino(cyclopropyl)methyl)-6-fluoro-5-methyl-1H-indazol-4-yl)imidazo[1,2-a]pyrazin-2-yl)-2-fluorocyclopropane-1-carboxamide], the pIC50 is above 7.00.

On to `O=C(Nc1cn2cc(-c3c(C(F)F)c(F)c(C(O)C4CC4)c4[nH]ncc34)ncc2n1)[C@@H]1C[C@@H]1F` (stereo partly drawn) [Example 19, (1S,2S)-N-(6-(7-(cyclopropyl(hydroxy)methyl)-5-(difluoromethyl)-6-fluoro-1H-indazol-4-yl)imidazo[1,2-a]pyrazin-2-yl)-2-fluorocyclopropane-1-carboxamide], for which the pIC50 was above 7.00.

`CC(c1c(F)c(C(F)F)c(-c2cn3cc(NC(=O)[C@@H]4C[C@@H]4F)nc3cn2)c2cn[nH]c12)N1C(=O)c2ccccc2C1=O` (stereo partly drawn) [Example 50, (1S,2S)-N-(6-(5-(difluoromethyl)-7-(1-(1,3-dioxoisoindolin-2-yl)ethyl)-6-fluoro-1H-indazol-4-yl)imidazo[1,2-a]pyrazin-2-yl)-2-fluorocyclopropane-1-carboxamide]: the pIC50 is above 7.00.

In the case of `CC(N)c1c(F)c(C(F)F)c(-c2cn3cc(NC(=O)[C@@H]4C[C@@H]4F)nc3cn2)c2cn[nH]c12` (stereo partly drawn) [Example 55, (1S,2S)-N-(6-(7-(1-aminoethyl)-5-(difluoromethyl)-6-fluoro-1H-indazol-4-yl)imidazo[1,2-a]pyrazin-2-yl)-2-fluorocyclopropane-1-carboxamide], the pIC50 was 6.30 to 7.00.

As for `CC(C)Nc1c(F)c(Cl)c(-c2cn3cc(NC(=O)C4CCNC4)nc3cn2)c2cn[nH]c12` (stereo not shown) [Example 74, N-(6-(5-chloro-6-fluoro-7-(isopropylamino)-1H-indazol-4-yl)imidazo[1,2-a]pyrazin-2-yl)pyrrolidine-3-carboxamide], the pIC50 was above 7.00.

For `CC(C)Nc1c(F)c(C(F)F)c(-c2cn3cc(NC(=O)[C@@H]4C[C@@H]4F)nc3cn2)c2cn[nH]c12` [Example 28, (1S,2S)-N-(6-(5-(difluoromethyl)-6-fluoro-7-(isopropylamino)-1H-indazol-4-yl)imidazo[1,2-a]pyrazin-2-yl)-2-fluorocyclopropane-1-carboxamide], the pIC50 is above 7.00.

With `CC(C)Nc1c(F)c(C(F)F)c(-c2cn3cc(NC(=O)C4CC4)nc3cn2)c2cn[nH]c12` [Example 156, N-(6-(5-(difluoromethyl)-6-fluoro-7-(isopropylamino)-1H-indazol-4-yl)imidazo[1,2-a]pyrazin-2-yl)cyclopropanecarboxamide], the pIC50 is above 7.00.

Take `CCC(=O)Nc1cn2cc(-c3c(C(F)F)c(F)c(NC(C)C)c4[nH]ncc34)ncc2n1` [Example 155, N-(6-(5-(difluoromethyl)-6-fluoro-7-(isopropylamino)-1H-indazol-4-yl)imidazo[1,2-a]pyrazin-2-yl)propionamide]: the pIC50 was above 7.00.

For `CC(=O)Nc1cn2cc(-c3c(Cl)c(F)c(CN4CC(O)C4)c4[nH]ncc34)ncc2n1` [Example 150, N-(6-(5-chloro-6-fluoro-7-((3-hydroxyazetidin-1-yl)methyl)-1H-indazol-4-yl)imidazo[1,2-a]pyrazin-2-yl)acetamide], the pIC50 is 6.00 to 6.30.

Consider `CC(C)Nc1c(F)c(Cl)c(-c2cn3cc(NC(=O)C4CCC4)nc3cn2)c2cn[nH]c12` [Example 60, N-(6-(5-chloro-6-fluoro-7-(isopropylamino)-1H-indazol-4-yl)imidazo[1,2-a]pyrazin-2-yl)cyclobutanecarboxamide], for which the pIC50 was above 7.00.

Consider `COC1CCCC1c1c(F)c(C)c(-c2cn3cc(NC(=O)[C@@H]4C[C@@H]4F)nc3cn2)c2cn[nH]c12` (stereo partly drawn) [Example 16, (1S,2S)-2-fluoro-N-(6-(6-fluoro-7-(2-methoxycyclopentyl)-5-methyl-1H-indazol-4-yl)imidazo[1,2-a]pyrazin-2-yl)cyclopropane-1-carboxamide], for which the pIC50 is above 7.00.

As for `Cc1c(F)c(C2CCOC2)c2[nH]ncc2c1-c1cn2cc(NC(=O)[C@@H]3C[C@@H]3F)nc2cn1` (stereo partly drawn) [Example 6, (1S,2S)-2-fluoro-N-(6-(6-fluoro-5-methyl-7-(tetrahydrofuran-3-yl)-1H-indazol-4-yl)imidazo[1,2-a]pyrazin-2-yl)cyclopropane-1-carboxamide], the pIC50 is above 7.00.

As for `Cc1c(F)c(C(C)NC(=O)C2CC2)c2[nH]ncc2c1-c1cn2cc(NC(=O)[C@@H]3C[C@@H]3F)nc2cn1` (stereo partly drawn) [Example 69, (1S,2S)-N-(6-(7-(1-(cyclopropanecarboxamido)ethyl)-6-fluoro-5-methyl-1H-indazol-4-yl)imidazo[1,2-a]pyrazin-2-yl)-2-fluorocyclopropane-1-carboxamide], the pIC50 was above 7.00.
